The values below come from ChEMBL document CHEMBL1201862, “PubChem BioAssay data set” (2004).

Some test systems named below: 786-0; BT-549; Hs-578T; MDA-MB-231; NCI-H226; PC-3; SNB-78; XF498; RXF 631.
Holding throughout (assay): DTP human tumour cell line panel, 48 h

By GI50 is commonly meant the concentration at which growth is held to half of that of the control.

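Assay format: 96-well plates, 48-hour exposure. GI50 is the concentration that inhibits growth by half.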 Calls of active or inactive are those of the source. Cut-off read from the data, not from the text of the source: active = GI50 up to about 1.1 µM and inactive = higher.

In the case of `NC(CSC1(c2ccc(Cl)cc2)c2ccccc2-c2ccccc21)C(=O)O` (centres undefined), the GI50 is 20.8 µM (inactive) in the experiment with 786-0; 18.2 µM (inactive) in the experiment on BT-549; 18.2 µM (inactive) in the experiment with Hs-578T; 18 µM (inactive) in the experiment on MDA-MB-231; 27.2 µM (inactive) in the experiment on NCI-H226; 18.3 µM (inactive) in the experiment on PC-3.

For the compound `C=C1C(=O)OC2C=C(C)CC3C=C(CCC=C(C)CCC12)C(=O)O3` (centres undefined), the GI50 in the experiment with NCI-H226 was 72.8 µM (inactive); in the experiment on SNB-78, 66.4 µM (inactive).

Consider `CC(C)(C)OC(=O)NC1CCC(C(C)(C)C)CC1` (centres undefined), for which the GI50 in the experiment on NCI-H226 is 26.4 µM (inactive); in the experiment with SNB-78, > 100 µM (inactive); in the experiment on XF498 it was > 52.2 µM (inactive).

For the compound `CO[C@H]1ON=C(c2c(C)cc(C)cc2C)[C@@H]1C1(c2ccccc2)ON=C(c2c(C)cc(C)cc2C)O1` (some centres undefined), the GI50 with SNB-78 was > 100 µM (inactive).

`[O-][S+]1[C@H](c2ccccc2)c2c(-c3ccccc3)sc(-c3ccccc3)c2[C@@H]1c1ccccc1` (some centres undefined): the GI50 with 786-0 is 29.3 µM (inactive); in the experiment on RXF 631 it was 39 µM (inactive).

As for `CC1(C)CC[C@]2(C(=O)O)CC[C@]3(C)C(=CC[C@@H]4[C@@]5(C)CC[C@@H]6OC(C)(C)OC[C@@]6(C)[C@@H]5CC[C@]43C)[C@H]2C1`, the GI50 in the experiment with 786-0 was 10 µM (inactive); in the experiment on MDA-MB-231, 3.04 µM (inactive); with PC-3, 5.4 µM (inactive).

`CC(C)(C)OC(=O)NC(Cc1c[nH]cn1)C(=O)N1CCCC1C(N)=O` (centres undefined): the GI50 in the experiment on 786-0 is > 100 µM (inactive); with BT-549, > 100 µM (inactive); with Hs-578T it was > 100 µM (inactive); in the experiment with MDA-MB-231, > 100 µM (inactive); in the experiment with NCI-H226, 33.1 µM (inactive); with PC-3, > 100 µM (inactive).

On to `C=CCNC(=O)CN(CC(=O)OC)C1CCCCC1N(CC(=O)OC)CC(=O)OC` (centres undefined), for which the GI50 in the experiment with BT-549, in the experiment on Hs-578T, in the experiment with MDA-MB-231, in the experiment on NCI-H226 and in the experiment with PC-3 was > 100 µM (inactive) throughout.

For the compound `O=C1C(Cl)N(c2ccccc2Cl)C1c1c[nH]c2ccccc12` (centres undefined), the GI50 with XF498 is > 100 µM (inactive).

Take `O=C(Nc1cccc2ccccc12)Oc1ccccc1C1CCCCC1`: the GI50 in the experiment on NCI-H226 was 18.2 µM (inactive); in the experiment on RXF 631, 19.5 µM (inactive); in the experiment with SNB-78, 23.4 µM (inactive).

Consider `CNC(=O)N(C)COC`, for which the GI50 in the experiment on NCI-H226, in the experiment with SNB-78 and in the experiment on XF498 was > 100 µM (inactive) each time.

Consider `CC(=O)OC1C(O)C(C)OC(OC(=O)C2CCC3C(C2)OC2(CC(OC(=O)/C=C/c4ccccc4)C(C)CO2)C32CO2)C1OC1OC(C)C(O)C(O)C1O` (centres undefined), for which the concentration for 50% growth inhibition (GI50) is 0.0435 µM (active) with NCI-H226, 0.0352 µM (active) in the experiment with SNB-78 and 0.0504 µM (active) with XF498.

As for `Cc1cn(Cc2cn(CC3OC(n4cc(C)c(=O)[nH]c4=O)CC3O)nn2)c(=O)[nH]c1=O` (centres undefined), the GI50 in the experiment with BT-549, in the experiment on Hs-578T, with MDA-MB-231, in the experiment with NCI-H226 and in the experiment on PC-3 was > 100 µM (inactive) each time.

Turning to `CCOc1ccc2nc(NC(=O)C(=O)C(C(=O)c3ccccc3F)C3OC(=O)c4ccccc43)sc2c1` (centres undefined), the GI50 is 5.01 µM (inactive) in the experiment with NCI-H226, 14.5 µM (inactive) in the experiment with RXF 631, 17.5 µM (inactive) with SNB-78 and 24.1 µM (inactive) in the experiment on XF498.

As to `O=C(O)CN1CCN(CC(=O)O)CCN(CC(=O)O)CC1`, the GI50 with BT-549 was > 100 µM (inactive); in the experiment on Hs-578T it was > 100 µM (inactive); with MDA-MB-231 it was > 31.9 µM (inactive); in the experiment on PC-3 it was > 28.5 µM (inactive).

On to `C=C(/C=C/C=C(\C)CCC=C(C)C)[C@@H]1CC[C@]2([C@H](CCCO)/C(=C(/C)C=O)CC[C@]2(C)O)[C@@H]1O`, for which the values for the GI50 in the experiment on NCI-H226, in the experiment with SNB-78 and in the experiment on XF498 were 24 µM (inactive), 17.7 µM (inactive) and 18.7 µM (inactive), respectively.
